# From ChEMBL document CHEMBL1134076, “5,5-Diaryl-2-amino-4-pentenoates as novel, potent, and selective glycine transporter type-2 reuptake inhibitors” (Bioorg Med Chem Lett, 2001)
# What was measured:
# [1] = target: T1, Sodium- and chloride-dependent glycine transporter 2 (Rattus norvegicus, UniProt P58295); experiment: In vitro glycine reuptake inhibitory activity against glycine transporter type-2 (GlyT-2) transporter cells after incubation at 37 degrees for 30 min in presence of 50 nM [3H]glycine.
# T1 sequence (P58295 whole entry): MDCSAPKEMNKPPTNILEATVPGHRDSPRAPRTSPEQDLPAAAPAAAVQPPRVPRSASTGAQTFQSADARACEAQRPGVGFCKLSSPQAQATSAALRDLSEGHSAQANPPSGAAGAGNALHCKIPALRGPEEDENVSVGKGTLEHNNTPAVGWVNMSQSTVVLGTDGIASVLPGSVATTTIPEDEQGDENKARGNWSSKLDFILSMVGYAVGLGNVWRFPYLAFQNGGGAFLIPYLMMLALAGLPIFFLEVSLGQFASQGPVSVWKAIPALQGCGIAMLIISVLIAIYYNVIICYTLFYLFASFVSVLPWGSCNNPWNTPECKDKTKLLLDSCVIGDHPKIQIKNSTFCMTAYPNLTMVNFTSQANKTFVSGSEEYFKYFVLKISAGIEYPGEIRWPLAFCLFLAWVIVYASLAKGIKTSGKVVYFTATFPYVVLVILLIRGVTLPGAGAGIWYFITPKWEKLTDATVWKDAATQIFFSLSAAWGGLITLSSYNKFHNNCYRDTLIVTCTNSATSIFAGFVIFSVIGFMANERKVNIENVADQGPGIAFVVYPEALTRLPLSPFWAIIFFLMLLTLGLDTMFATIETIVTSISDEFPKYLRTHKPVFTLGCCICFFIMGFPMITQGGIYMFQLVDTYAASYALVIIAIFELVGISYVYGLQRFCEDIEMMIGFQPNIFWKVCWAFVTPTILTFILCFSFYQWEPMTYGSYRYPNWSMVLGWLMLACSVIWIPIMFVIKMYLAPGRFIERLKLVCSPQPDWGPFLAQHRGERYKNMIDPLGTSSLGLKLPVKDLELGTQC
# [2] = target: T2, Sodium- and chloride-dependent glycine transporter 1 (Rattus norvegicus, UniProt P28572); experiment: In vitro glycine reuptake inhibitory activity against glycine transporter type-1 isoform C (GlyT-1c) transporter cells after incubation at 37 degrees for 30 min in presence of 50 nM [3H]glycine.
# T2 sequence (P28572 whole entry): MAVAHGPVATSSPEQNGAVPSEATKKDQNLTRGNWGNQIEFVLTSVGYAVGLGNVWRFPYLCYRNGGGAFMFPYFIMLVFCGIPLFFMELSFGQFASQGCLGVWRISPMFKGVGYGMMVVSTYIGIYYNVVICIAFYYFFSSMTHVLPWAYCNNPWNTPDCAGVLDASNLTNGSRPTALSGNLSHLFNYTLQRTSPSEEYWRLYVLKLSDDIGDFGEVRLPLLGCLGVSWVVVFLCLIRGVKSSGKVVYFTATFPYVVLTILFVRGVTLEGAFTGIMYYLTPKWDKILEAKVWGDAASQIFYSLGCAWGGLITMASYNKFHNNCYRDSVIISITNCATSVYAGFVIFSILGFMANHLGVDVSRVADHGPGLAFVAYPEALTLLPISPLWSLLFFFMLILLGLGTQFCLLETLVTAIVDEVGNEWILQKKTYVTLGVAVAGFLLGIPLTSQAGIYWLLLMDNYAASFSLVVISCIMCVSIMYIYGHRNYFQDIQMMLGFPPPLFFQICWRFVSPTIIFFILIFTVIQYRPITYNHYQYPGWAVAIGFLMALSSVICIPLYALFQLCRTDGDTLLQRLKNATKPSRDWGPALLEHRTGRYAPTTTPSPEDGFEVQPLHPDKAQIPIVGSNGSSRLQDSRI
IC50 [1] [µM],IC50 [2] [µM],Compound
3.66,> 10,NC(C/C=C(\c1ccc(-c2ccccc2)cc1)c1ccc(F)cc1F)C(=O)O (stereo not given)
0.46,> 10,CCc1ccc(/C(=C\CC(N)C(=O)O)c2ccc(F)cc2F)cc1 (stereo not given)
0.4,8.34,CC(C)c1ccc(/C(=C\CC(N)C(=O)O)c2ccccc2)cc1 (stereo not given)
1.59,> 10,CC(C)c1cccc(/C(=C\CC(N)C(=O)O)c2ccc(F)cc2F)c1 (stereo not given)
> 10,> 10,N#Cc1ccc(/C(=C\CC(N)C(=O)O)c2ccc(F)cc2F)cc1 (stereo not given)
5.93,6.48,CC(C)c1ccc(/C(=C\CC(N)C(=O)O)c2cccnc2)cc1 (stereo not given)
2.4,3.4,NC(C/C=C(/c1ccc(-c2ccccc2)cc1)c1ccc(F)cc1F)C(=O)O (stereo not given)
2.75,8.92,NC(C/C=C(/c1ccc(F)cc1F)c1ccccc1-c1ccccc1)C(=O)O (stereo not given)
2.03,> 10,COc1ccc(/C(=C\CC(N)C(=O)O)c2ccc(F)cc2F)cc1 (stereo not given)
2.03,> 10,CC(C)c1ccc(C(=CCC(N)C(=O)O)c2ccc(C(C)C)cc2)cc1 (stereo not given)
> 10,> 10,CC(C)c1ccc(/C(=C/CC(N)C(=O)O)c2ccc(F)cc2F)cc1 (stereo not given)
0.77,> 10,NC(C/C=C(\c1ccc2ccccc2c1)c1ccc(F)cc1F)C(=O)O (stereo not given)
1.03,5.77,CC(C)c1ccc(/C(=C\CC(N)C(=O)O)c2ccsc2)cc1 (stereo not given)
5.47,> 10,CC(C)c1ccc(/C(=C\CC(N)C(=O)O)c2ccc(C(C)(C)C)cc2)cc1 (stereo not given)
0.365,–,N[C@@H](C/C=C(\c1ccc2ccccc2c1)c1ccc(F)cc1F)C(=O)O
0.66,> 10,CCc1ccc(/C(=C\CC(N)C(=O)O)c2ccc(F)cc2F)cc1CC (stereo not given)
2.06,> 10,CC(C)c1ccc(/C(=C\CC(N)C(=O)O)c2ccc(-c3ccccc3)cc2)cc1 (stereo not given)
1.17,9.56,Cc1ccc(/C(=C\CC(N)C(=O)O)c2ccc(F)cc2F)cc1 (stereo not given)
6.44,9.5,NC(C/C=C(\c1ccccc1)c1ccc(F)cc1F)C(=O)O (stereo not given)
> 10,> 10,NC(C/C=C(\c1cccnc1)c1ccc(F)cc1F)C(=O)O (stereo not given)
0.15,–,CC(C)c1ccc(/C(=C\C[C@H](N)C(=O)O)c2ccc(F)cc2F)cc1
0.283,–,CCc1ccc(/C(=C\C[C@H](N)C(=O)O)c2ccc(F)cc2F)cc1CC
1.16,> 10,COc1ccc(/C(=C/CC(N)C(=O)O)c2ccc(C(C)C)cc2)cc1 (stereo not given)
1.34,> 10,NC(C/C=C(\c1cccc(-c2ccccc2)c1)c1ccc(F)cc1F)C(=O)O (stereo not given)
0.33,> 10,CC(C)c1ccc(/C(=C\CC(N)C(=O)O)c2ccc(F)cc2F)cc1 (stereo not given)
2.64,> 10,CC(C)c1ccc(/C(=C\CC(N)C(=O)O)c2ccc(C#N)cc2)cc1 (stereo not given)
1.74,> 10,CC(C)(C)c1ccc(/C(=C\CC(N)C(=O)O)c2ccc(F)cc2F)cc1 (stereo not given)
5.88,> 10,NC(C/C=C(\c1ccsc1)c1ccc(F)cc1F)C(=O)O (stereo not given)
0.29,8.02,CC(C)c1ccc(/C(=C\CC(N)C(=O)O)c2ccccc2F)cc1 (stereo not given)
